Test [1] concerns the target T1, synthesized WT-HRH1 proteoglycerosomes (Homo sapiens, UniProt P35367).
Description: (§1) Eight different concentrations of each cold competitor were used in the competitive binding studies. […] The data are based on experiments performed in triplicate. The experimental conditions were the same as those used in the saturation studies.
The target of test [2] is T2, rat cerebral neuronal membranes (histamine H1 binding sites) (Rattus norvegicus, UniProt P31390).
T2 construct: native receptors contained in rat cerebral neuronal membranes; from tissue; host or cells: cerebral tissue of male Wistar rats, membrane fraction (40,000 x g pellet)
Description: Competitive displacement of [^3H]pyrilamine binding, rat cerebral neuronal membranes. The note with it: for displacement of specific [^3H]pyrilamine binding (in words): rat cerebral neuronal membranes, 20 nM [^3H]pyrilamine.

In test [3] the target is T1, synthesized WT-HRH1 proteoglycerosomes. Briefly: biochemical.
Description: as §1

Structures can show the parent of a compound that is named as a salt. Where two headings read alike, the source gives them in different places.

The source of these data is PMC5808195 (Frontiers in Pharmacology, 2018).

T1 sequence (P35367 whole entry): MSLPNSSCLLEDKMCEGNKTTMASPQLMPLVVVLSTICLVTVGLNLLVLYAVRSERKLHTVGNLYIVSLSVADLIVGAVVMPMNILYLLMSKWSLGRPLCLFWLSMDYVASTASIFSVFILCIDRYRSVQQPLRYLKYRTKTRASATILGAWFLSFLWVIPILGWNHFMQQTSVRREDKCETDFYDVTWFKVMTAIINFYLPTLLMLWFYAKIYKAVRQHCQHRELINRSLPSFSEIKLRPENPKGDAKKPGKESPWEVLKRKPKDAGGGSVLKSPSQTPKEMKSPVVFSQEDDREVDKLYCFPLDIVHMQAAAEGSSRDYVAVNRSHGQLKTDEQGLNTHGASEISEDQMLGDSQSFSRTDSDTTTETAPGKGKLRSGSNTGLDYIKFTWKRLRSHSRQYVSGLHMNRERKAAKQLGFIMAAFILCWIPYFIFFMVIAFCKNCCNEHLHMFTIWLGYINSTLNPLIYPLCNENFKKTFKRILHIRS
T2 sequence (P31390 whole entry): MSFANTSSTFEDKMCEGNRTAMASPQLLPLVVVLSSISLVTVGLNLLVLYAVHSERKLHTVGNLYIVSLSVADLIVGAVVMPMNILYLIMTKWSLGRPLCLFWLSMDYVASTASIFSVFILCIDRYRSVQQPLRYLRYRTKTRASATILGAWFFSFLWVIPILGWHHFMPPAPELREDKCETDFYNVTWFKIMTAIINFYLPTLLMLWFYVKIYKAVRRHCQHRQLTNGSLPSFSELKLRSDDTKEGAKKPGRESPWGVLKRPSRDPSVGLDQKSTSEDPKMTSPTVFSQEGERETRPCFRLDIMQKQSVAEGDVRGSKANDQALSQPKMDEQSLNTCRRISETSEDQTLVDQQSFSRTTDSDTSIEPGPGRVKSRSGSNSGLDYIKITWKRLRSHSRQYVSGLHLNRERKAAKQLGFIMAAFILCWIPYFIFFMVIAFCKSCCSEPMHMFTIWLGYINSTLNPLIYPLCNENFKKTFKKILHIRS

For `C[C@@H](N)Cc1cnc[nH]1` [alpha methylhistamine, alpha-methylhistamine], the “displacement of specific [^3H]pyrilamine binding (in words)” value (“displacement of specific” below) in test [1] and in test [2] was “did not inhibit” throughout.
Turning to `S=C(NC1CCCCC1)N1CCC(c2cnc[nH]2)CC1` [thioperamide], the “displacement of specific” value in test [1] and in test [2] was “no displacement ability” each time.
As for `NC1=NCC2c3ccccc3Cc3ccccc3N12` (centres unmarked) [Epinastine, epinastine hydrochloride], the “displacement of specific” value in test [1] (synthesized receptors, 20 nM [^3H]pyrilamine) is on record as “concentration-dependent inhibition”; in test [2], “concentration-dependent inhibition”. In addition, the Ki (in general, a measure of affinity in units of concentration, obtained from inhibition or displacement) was found to be 0.332 ± 0.0989 nM in test [3] and 0.288 ± 0.0615 nM in test [2].
